Laboratory results: the kinase profiling compilation of Christmann-Franck et al. (2016)

What was measured:
Assay in all cases: radiometric filter-binding kinase assay
CHEK2 (human) = CHEK2 (human) (UniProt O96017)
MARK3 (human) = MARK3 (human) (UniProt P27448)
ABL1 (human) = ABL1 (human) (UniProt P00519)
PRKCG (human) = PRKCG (human) (UniProt P05129)
PTK6 (human) = PTK6 (human) (UniProt Q13882)
STK16 (human) = STK16 (human) (UniProt O75716)
STK33 (human) = STK33 (human) (UniProt Q9BYT3)
TEK (human) = TEK (human) (UniProt Q02763)
ZAP70 (human) = ZAP70 (human) (UniProt P43403)
Sequence of ZAP70 (human) (P43403 whole entry, looked up): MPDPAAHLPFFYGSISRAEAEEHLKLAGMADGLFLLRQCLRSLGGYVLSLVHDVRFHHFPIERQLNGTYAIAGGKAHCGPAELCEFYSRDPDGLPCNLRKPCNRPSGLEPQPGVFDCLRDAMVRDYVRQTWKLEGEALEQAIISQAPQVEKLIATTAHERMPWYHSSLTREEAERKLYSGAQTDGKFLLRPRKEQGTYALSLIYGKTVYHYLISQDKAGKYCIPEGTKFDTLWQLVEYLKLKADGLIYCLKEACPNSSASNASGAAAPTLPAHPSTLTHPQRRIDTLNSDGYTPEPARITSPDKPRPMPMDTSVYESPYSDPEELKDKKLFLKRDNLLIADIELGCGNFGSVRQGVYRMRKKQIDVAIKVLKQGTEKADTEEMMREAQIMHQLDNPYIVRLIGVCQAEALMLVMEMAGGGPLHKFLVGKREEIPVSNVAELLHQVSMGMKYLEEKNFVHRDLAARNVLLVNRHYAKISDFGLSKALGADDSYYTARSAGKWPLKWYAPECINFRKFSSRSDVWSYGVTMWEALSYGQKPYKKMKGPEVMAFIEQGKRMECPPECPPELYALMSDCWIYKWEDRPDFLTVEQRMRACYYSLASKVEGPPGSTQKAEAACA

Sequence of STK16 (human) (O75716 whole entry, looked up): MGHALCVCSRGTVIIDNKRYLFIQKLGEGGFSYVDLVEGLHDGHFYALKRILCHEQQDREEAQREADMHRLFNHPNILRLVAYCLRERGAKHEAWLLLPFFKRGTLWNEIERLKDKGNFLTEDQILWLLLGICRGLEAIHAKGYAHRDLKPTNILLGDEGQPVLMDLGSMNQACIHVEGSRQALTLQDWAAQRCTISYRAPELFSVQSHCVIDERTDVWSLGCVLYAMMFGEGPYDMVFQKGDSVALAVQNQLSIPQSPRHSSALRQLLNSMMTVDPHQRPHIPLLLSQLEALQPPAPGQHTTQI
Sequence of TEK (human) (Q02763 whole entry, looked up): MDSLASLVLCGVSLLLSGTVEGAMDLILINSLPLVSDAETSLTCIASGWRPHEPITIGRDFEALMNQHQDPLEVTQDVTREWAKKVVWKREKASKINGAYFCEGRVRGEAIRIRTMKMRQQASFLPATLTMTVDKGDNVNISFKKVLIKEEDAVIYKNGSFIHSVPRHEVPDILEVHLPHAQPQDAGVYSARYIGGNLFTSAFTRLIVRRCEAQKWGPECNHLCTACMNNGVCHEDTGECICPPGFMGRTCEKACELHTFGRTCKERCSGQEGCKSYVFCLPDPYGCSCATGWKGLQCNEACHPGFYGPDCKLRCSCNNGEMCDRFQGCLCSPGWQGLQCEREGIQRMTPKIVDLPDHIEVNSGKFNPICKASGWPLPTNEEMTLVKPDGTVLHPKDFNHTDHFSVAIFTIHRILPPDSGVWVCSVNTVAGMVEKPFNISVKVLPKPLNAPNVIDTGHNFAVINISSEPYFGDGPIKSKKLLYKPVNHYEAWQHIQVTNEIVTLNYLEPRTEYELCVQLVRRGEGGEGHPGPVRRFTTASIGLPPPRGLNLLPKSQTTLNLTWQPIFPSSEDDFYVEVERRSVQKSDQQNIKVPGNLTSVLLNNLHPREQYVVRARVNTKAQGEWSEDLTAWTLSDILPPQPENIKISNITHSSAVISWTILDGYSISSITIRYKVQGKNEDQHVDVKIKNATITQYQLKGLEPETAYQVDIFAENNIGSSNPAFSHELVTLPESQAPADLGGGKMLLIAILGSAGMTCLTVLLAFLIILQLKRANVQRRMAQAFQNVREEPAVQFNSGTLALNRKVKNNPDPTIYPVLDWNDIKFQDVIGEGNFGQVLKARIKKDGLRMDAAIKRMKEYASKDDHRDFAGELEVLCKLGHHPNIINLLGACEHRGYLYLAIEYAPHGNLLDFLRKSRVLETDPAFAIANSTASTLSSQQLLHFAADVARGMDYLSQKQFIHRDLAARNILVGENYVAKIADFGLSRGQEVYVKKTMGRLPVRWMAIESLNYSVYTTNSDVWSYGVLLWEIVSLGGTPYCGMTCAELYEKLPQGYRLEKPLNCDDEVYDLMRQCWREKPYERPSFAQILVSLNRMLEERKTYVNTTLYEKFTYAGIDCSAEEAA
Sequence of PTK6 (human) (Q13882 whole entry, looked up): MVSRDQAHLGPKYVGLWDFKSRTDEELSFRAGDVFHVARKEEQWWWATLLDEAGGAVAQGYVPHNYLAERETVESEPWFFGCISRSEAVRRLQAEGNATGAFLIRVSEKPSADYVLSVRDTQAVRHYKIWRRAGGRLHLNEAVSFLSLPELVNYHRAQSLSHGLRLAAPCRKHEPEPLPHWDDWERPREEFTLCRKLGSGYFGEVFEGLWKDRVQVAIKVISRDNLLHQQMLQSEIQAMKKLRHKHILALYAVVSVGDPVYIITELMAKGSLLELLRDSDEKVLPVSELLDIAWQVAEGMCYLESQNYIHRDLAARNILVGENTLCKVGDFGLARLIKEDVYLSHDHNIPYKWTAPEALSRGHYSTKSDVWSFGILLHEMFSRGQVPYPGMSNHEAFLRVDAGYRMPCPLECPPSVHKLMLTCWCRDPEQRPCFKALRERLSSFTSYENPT
Sequence of MARK3 (human) (P27448 whole entry, looked up): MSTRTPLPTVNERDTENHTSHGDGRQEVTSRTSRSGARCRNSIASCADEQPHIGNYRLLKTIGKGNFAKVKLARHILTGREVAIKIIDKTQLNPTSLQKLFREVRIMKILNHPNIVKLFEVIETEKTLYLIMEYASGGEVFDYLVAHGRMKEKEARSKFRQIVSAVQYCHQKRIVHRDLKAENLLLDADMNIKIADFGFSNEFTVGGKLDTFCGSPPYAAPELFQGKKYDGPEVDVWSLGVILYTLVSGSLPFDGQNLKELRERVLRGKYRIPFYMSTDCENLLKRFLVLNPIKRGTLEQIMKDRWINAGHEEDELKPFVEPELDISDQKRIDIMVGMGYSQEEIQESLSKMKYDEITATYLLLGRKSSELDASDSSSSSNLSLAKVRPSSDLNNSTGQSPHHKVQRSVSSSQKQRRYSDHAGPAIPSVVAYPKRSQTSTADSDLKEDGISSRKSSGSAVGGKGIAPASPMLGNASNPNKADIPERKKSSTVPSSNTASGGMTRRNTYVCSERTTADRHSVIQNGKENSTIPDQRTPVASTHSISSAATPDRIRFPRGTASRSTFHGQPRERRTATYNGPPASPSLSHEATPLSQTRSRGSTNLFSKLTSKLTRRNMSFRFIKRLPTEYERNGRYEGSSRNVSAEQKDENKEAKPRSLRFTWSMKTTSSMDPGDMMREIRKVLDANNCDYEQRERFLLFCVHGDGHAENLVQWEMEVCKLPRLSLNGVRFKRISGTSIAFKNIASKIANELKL
Sequence of ABL1 (human) (P00519 whole entry, looked up): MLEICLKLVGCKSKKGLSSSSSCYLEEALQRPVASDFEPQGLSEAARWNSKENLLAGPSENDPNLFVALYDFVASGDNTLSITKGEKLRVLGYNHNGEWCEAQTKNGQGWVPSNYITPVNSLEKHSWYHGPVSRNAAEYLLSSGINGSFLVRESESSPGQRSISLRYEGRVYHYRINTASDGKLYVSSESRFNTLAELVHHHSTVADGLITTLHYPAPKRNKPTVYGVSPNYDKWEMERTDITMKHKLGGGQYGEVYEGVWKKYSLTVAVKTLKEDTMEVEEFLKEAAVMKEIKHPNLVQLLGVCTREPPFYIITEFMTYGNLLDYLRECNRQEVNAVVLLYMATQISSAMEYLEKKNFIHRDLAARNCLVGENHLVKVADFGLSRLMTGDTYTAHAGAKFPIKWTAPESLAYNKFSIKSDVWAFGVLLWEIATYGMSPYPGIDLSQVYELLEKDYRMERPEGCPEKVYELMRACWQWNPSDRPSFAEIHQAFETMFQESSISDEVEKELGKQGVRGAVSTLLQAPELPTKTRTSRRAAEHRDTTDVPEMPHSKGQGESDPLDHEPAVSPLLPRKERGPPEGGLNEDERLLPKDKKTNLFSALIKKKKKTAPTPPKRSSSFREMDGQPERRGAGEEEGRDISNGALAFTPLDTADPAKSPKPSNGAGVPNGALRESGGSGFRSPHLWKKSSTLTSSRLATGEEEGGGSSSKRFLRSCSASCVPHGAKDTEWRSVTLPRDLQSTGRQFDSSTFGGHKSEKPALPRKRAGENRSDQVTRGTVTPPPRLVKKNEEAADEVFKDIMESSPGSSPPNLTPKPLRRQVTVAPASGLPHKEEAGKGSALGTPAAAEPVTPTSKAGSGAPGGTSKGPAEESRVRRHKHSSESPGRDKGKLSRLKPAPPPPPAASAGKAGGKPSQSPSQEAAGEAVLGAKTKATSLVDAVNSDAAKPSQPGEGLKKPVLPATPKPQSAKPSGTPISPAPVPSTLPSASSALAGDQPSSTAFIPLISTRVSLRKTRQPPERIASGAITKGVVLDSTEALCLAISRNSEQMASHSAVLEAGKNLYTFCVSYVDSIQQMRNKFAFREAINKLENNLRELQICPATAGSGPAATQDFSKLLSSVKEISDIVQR
Sequence of CHEK2 (human) (O96017 whole entry, looked up): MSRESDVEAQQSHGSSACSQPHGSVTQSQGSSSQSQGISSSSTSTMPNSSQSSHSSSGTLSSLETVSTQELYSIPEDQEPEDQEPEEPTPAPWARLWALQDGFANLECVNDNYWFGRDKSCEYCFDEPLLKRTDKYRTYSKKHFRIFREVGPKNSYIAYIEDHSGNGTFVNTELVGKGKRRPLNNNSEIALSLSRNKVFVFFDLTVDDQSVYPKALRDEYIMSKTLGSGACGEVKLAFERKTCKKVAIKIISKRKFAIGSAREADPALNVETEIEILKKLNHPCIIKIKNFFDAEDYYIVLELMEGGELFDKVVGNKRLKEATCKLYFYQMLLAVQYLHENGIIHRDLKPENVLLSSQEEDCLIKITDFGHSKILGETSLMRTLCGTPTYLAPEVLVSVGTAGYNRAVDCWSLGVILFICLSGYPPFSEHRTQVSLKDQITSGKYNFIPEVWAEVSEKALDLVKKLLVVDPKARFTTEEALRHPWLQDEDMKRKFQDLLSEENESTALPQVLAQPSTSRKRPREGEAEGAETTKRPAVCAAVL

SMILES: Cc1cc(SCc2sc(-c3ccc(C(F)(F)F)cc3)nc2C)ccc1OCC(=O)O
- residual activity (CHEK2 (human); compound 1.0 µM): 81%
- residual activity (CHEK2 (human); compound 10.0 µM): 101%
- residual activity (MARK3 (human); compound 1.0 µM): 93%
- residual activity (MARK3 (human); compound 10.0 µM): 91%

SMILES: Cc1ccc(Sc2cnc(Nc3cccc(Br)n3)s2)cc1C(=O)N1CCN(C(=O)CN)CC1
- residual activity (CHEK2 (human); compound 0.1 µM): 20%
- residual activity (CHEK2 (human); compound 1.0 µM): 18%
- residual activity (CHEK2 (human); compound 10.0 µM): 4%
- residual activity (MARK3 (human); compound 0.1 µM): 103%
- residual activity (MARK3 (human); compound 1.0 µM): 89%
- residual activity (MARK3 (human); compound 10.0 µM): 57%

SMILES: CCCCCc1ccc(/C=C/[C@H](O)[C@@H](CO)NC)cc1
- residual activity (ABL1 (human); compound 0.1 µM): 110%
- residual activity (ABL1 (human); compound 1.0 µM): 106%
- residual activity (ABL1 (human); compound 10.0 µM): 109%
- residual activity (CHEK2 (human); compound 0.1 µM): 92%
- residual activity (CHEK2 (human); compound 1.0 µM): 84%
- residual activity (CHEK2 (human); compound 10.0 µM): 82%
- residual activity (MARK3 (human); compound 0.1 µM): 101%
- residual activity (MARK3 (human); compound 1.0 µM): 107%
- residual activity (MARK3 (human); compound 10.0 µM): 105%
- residual activity (PRKCG (human); compound 0.1 µM): 101%
- residual activity (PRKCG (human); compound 1.0 µM): 109%
- residual activity (PRKCG (human); compound 10.0 µM): 96%
- residual activity (PTK6 (human); compound 0.1 µM): 104%
- residual activity (PTK6 (human); compound 1.0 µM): 93%
- residual activity (PTK6 (human); compound 10.0 µM): 104%
- residual activity (STK16 (human); compound 0.1 µM): 104%
- residual activity (STK16 (human); compound 1.0 µM): 98%
- residual activity (STK16 (human); compound 10.0 µM): 100%
- residual activity (STK33 (human); compound 0.1 µM): 100%
- residual activity (STK33 (human); compound 1.0 µM): 100%
- residual activity (STK33 (human); compound 10.0 µM): 89%
- residual activity (TEK (human); compound 0.1 µM): 141%
- residual activity (TEK (human); compound 1.0 µM): 118%
- residual activity (TEK (human); compound 10.0 µM): 113%
- residual activity (ZAP70 (human); compound 0.1 µM): 116%
- residual activity (ZAP70 (human); compound 1.0 µM): 106%
- residual activity (ZAP70 (human); compound 10.0 µM): 92%

SMILES: O=S(=O)(c1ccc(F)c2nonc12)N1CCN(c2ncc(C(F)(F)F)cc2Cl)CC1
- residual activity (ABL1 (human); compound 10.0 µM): 111%
- residual activity (CHEK2 (human); compound 10.0 µM): 93%
- residual activity (MARK3 (human); compound 10.0 µM): 106%
- residual activity (PRKCG (human); compound 10.0 µM): 98%
- residual activity (PTK6 (human); compound 10.0 µM): 101%
- residual activity (STK16 (human); compound 10.0 µM): 94%
- residual activity (STK33 (human); compound 10.0 µM): 97%
- residual activity (TEK (human); compound 10.0 µM): 112%
- residual activity (ZAP70 (human); compound 10.0 µM): 85%

SMILES: C[C@H]1CCCC(=O)CCC/C=C/c2cc(O)cc(O)c2C(=O)O1
- residual activity (CHEK2 (human); compound 1.0 µM): 93%
- residual activity (CHEK2 (human); compound 10.0 µM): 73%
- residual activity (MARK3 (human); compound 1.0 µM): 102%
- residual activity (MARK3 (human); compound 10.0 µM): 99%

SMILES: Oc1ccc2ccccc2c1SSc1c(O)ccc2ccccc12
- residual activity (CHEK2 (human); compound 1.0 µM): 58%
- residual activity (CHEK2 (human); compound 5.0 µM): 34%
- residual activity (CHEK2 (human); compound 10.0 µM): 94%
- residual activity (MARK3 (human); compound 1.0 µM): 81%
- residual activity (MARK3 (human); compound 5.0 µM): 63%
- residual activity (MARK3 (human); compound 10.0 µM): 69%

SMILES: NC(=O)Nc1ccc2c(c1)/C(=C/c1cc(-c3cccnc3)c[nH]1)C(=O)N2
- residual activity (CHEK2 (human); compound 0.1 µM): -1%
- residual activity (CHEK2 (human); compound 1.0 µM): -5%
- residual activity (CHEK2 (human); compound 10.0 µM): 1%
- residual activity (MARK3 (human); compound 0.1 µM): 16%
- residual activity (MARK3 (human); compound 1.0 µM): 5%
- residual activity (MARK3 (human); compound 10.0 µM): 3%

SMILES: O=c1c(O)c(-c2ccc(O)c(O)c2)oc2cc(O)c(O)c(O)c12
- residual activity (CHEK2 (human); compound 1.0 µM): 48%
- residual activity (CHEK2 (human); compound 10.0 µM): 5%
- residual activity (MARK3 (human); compound 1.0 µM): 51%
- residual activity (MARK3 (human); compound 10.0 µM): 6%

SMILES: C/C(=C1/C(=O)Nc2ccc(NC(N)=O)cc21)c1ccc[nH]1
- residual activity (CHEK2 (human); compound 0.001 µM): 32%
- residual activity (CHEK2 (human); compound 0.01 µM): 7%
- residual activity (CHEK2 (human); compound 0.1 µM): 0%
- residual activity (MARK3 (human); compound 0.001 µM): 93%
- residual activity (MARK3 (human); compound 0.01 µM): 61%
- residual activity (MARK3 (human); compound 0.1 µM): 14%

SMILES: NS(=O)(=O)OC[C@@H]1C[C@@H](n2ccc3c(N[C@H]4CCc5ccccc54)ncnc32)C[C@@H]1O
- residual activity (CHEK2 (human); compound 10.0 µM): 67%
- residual activity (MARK3 (human); compound 1.0 µM): 101%
- residual activity (MARK3 (human); compound 10.0 µM): 100%

SMILES: O=C(O)c1ccc(-c2c[nH]c3ncc(-c4ccccc4)cc23)cc1C1CCCC1
- residual activity (CHEK2 (human); compound 0.1 µM): 83%
- residual activity (CHEK2 (human); compound 1.0 µM): 40%
- residual activity (CHEK2 (human); compound 10.0 µM): 28%
- residual activity (MARK3 (human); compound 0.1 µM): 89%
- residual activity (MARK3 (human); compound 1.0 µM): 60%
- residual activity (MARK3 (human); compound 10.0 µM): 29%

SMILES: COc1cc(O)c2c(c1)/C=C/C[C@H](O)[C@H](O)C(=O)/C=C\C[C@H](C)OC2=O
- residual activity (ABL1 (human); compound 0.1 µM): 108%
- residual activity (ABL1 (human); compound 1.0 µM): 71%
- residual activity (CHEK2 (human); compound 0.1 µM): 110%
- residual activity (CHEK2 (human); compound 1.0 µM): 87%
- residual activity (MARK3 (human); compound 0.1 µM): 116%
- residual activity (MARK3 (human); compound 1.0 µM): 77%
- residual activity (PRKCG (human); compound 0.1 µM): 87%
- residual activity (PRKCG (human); compound 1.0 µM): 87%
- residual activity (PTK6 (human); compound 0.1 µM): 65%
- residual activity (PTK6 (human); compound 1.0 µM): 25%
- residual activity (STK16 (human); compound 0.1 µM): 103%
- residual activity (STK16 (human); compound 1.0 µM): 101%
- residual activity (STK33 (human); compound 0.1 µM): 120%
- residual activity (STK33 (human); compound 1.0 µM): 85%
- residual activity (TEK (human); compound 0.1 µM): 103%
- residual activity (TEK (human); compound 1.0 µM): 93%
- residual activity (ZAP70 (human); compound 0.1 µM): 110%
- residual activity (ZAP70 (human); compound 1.0 µM): 96%

SMILES: NC(=O)c1cc2c(-c3cccc(-c4ccccc4)c3)cnc(N)c2s1
- residual activity (CHEK2 (human); compound 0.1 µM): 104%
- residual activity (CHEK2 (human); compound 1.0 µM): 37%
- residual activity (CHEK2 (human); compound 10.0 µM): 18%
- residual activity (MARK3 (human); compound 0.1 µM): 104%
- residual activity (MARK3 (human); compound 1.0 µM): 69%
- residual activity (MARK3 (human); compound 10.0 µM): 26%
